# Measured values: US20260265238A1, “COMPOUNDS AND PHARMACEUTICAL COMPOSITIONS THAT DEGRADE SWI/SNF-RELATED MATRIX-ASSOCIATED ACTIN-DEPENDENT REGULATOR OF CHROMATIN SUBFAMILY A” (Plexium, Inc., priority 2023, published 2026)
# Experiments:
# [1] = target: T1, SMARCA2-HiBiT HeLa cells (protein which is expressed from the SMARCA2 gene) (Homo sapiens, UniProt P51531); assay: SMARCA2 degradation assay (HiBiT-fusion HeLa cell line, 24 h, luminescence); format: cell-based
# T1 construct: protein which is expressed from the SMARCA2 and SMARCA4 genes; host or cells: HeLa (SMARCA2-HiBiT engineered line)
# In short: (§1)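 SMARCA2- or SMARCA4-HiBiT HeLa cells seeded overnight at 37° C, then given compound as a 10-point dilution (typically 10 μM to 300 pM) for 24 h at 37° C. Protein level read by HiBiT lytic detection luminescence; DC50 from dose-response curves; degradation also scored at 1 μM.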
# [2] = target: T2, SMARCA4-HiBiT HeLa cells (protein which is expressed from the SMARCA4 gene) (Homo sapiens, UniProt P51532); assay: SMARCA4 degradation assay (HiBiT-fusion HeLa cell line, 24 h, luminescence); format: cell-based
# T2 construct: protein which is expressed from the SMARCA2 and SMARCA4 genes; host or cells: HeLa (SMARCA4-HiBiT engineered line)
# In short: as §1
# T1 sequence (P51531 whole entry, the tested form may be a part): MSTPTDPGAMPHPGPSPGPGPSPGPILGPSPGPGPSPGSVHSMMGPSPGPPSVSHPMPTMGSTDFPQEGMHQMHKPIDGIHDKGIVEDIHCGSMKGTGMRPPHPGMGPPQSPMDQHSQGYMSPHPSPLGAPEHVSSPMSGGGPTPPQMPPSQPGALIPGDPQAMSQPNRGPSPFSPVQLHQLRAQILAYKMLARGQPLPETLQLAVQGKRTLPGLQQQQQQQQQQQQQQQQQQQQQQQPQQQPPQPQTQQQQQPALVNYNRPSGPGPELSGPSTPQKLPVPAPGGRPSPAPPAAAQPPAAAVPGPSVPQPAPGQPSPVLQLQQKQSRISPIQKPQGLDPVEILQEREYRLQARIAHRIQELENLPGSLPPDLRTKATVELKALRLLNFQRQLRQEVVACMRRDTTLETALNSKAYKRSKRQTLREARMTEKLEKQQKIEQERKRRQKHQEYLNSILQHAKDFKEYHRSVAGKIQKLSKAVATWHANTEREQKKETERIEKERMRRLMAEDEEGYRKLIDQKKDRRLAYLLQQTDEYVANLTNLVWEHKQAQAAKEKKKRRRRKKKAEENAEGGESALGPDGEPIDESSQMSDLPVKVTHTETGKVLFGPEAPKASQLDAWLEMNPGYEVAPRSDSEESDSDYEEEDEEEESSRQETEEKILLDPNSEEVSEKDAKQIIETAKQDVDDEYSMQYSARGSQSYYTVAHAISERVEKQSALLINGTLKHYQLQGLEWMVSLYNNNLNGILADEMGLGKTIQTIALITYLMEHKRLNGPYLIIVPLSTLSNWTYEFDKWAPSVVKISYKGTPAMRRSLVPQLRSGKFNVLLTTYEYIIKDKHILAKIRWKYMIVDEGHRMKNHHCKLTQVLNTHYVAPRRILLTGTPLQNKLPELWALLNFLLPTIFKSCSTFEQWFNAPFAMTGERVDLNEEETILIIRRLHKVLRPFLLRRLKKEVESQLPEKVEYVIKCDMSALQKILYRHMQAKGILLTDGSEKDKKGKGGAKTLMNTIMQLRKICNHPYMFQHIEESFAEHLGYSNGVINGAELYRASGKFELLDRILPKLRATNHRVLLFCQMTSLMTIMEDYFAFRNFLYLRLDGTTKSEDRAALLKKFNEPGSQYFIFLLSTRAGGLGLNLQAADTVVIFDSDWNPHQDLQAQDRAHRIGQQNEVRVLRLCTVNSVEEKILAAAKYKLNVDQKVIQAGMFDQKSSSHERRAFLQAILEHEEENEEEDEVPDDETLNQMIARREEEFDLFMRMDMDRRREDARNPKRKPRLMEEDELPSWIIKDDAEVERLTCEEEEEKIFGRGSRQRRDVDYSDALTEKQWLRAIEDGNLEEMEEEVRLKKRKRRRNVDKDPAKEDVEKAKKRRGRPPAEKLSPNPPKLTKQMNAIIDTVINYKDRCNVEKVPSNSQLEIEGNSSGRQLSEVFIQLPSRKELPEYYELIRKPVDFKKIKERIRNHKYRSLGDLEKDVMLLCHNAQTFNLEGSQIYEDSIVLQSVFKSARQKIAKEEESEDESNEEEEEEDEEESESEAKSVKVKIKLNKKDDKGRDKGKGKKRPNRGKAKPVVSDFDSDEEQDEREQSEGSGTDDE
# T2 sequence (P51532 whole entry, the tested form may be a part): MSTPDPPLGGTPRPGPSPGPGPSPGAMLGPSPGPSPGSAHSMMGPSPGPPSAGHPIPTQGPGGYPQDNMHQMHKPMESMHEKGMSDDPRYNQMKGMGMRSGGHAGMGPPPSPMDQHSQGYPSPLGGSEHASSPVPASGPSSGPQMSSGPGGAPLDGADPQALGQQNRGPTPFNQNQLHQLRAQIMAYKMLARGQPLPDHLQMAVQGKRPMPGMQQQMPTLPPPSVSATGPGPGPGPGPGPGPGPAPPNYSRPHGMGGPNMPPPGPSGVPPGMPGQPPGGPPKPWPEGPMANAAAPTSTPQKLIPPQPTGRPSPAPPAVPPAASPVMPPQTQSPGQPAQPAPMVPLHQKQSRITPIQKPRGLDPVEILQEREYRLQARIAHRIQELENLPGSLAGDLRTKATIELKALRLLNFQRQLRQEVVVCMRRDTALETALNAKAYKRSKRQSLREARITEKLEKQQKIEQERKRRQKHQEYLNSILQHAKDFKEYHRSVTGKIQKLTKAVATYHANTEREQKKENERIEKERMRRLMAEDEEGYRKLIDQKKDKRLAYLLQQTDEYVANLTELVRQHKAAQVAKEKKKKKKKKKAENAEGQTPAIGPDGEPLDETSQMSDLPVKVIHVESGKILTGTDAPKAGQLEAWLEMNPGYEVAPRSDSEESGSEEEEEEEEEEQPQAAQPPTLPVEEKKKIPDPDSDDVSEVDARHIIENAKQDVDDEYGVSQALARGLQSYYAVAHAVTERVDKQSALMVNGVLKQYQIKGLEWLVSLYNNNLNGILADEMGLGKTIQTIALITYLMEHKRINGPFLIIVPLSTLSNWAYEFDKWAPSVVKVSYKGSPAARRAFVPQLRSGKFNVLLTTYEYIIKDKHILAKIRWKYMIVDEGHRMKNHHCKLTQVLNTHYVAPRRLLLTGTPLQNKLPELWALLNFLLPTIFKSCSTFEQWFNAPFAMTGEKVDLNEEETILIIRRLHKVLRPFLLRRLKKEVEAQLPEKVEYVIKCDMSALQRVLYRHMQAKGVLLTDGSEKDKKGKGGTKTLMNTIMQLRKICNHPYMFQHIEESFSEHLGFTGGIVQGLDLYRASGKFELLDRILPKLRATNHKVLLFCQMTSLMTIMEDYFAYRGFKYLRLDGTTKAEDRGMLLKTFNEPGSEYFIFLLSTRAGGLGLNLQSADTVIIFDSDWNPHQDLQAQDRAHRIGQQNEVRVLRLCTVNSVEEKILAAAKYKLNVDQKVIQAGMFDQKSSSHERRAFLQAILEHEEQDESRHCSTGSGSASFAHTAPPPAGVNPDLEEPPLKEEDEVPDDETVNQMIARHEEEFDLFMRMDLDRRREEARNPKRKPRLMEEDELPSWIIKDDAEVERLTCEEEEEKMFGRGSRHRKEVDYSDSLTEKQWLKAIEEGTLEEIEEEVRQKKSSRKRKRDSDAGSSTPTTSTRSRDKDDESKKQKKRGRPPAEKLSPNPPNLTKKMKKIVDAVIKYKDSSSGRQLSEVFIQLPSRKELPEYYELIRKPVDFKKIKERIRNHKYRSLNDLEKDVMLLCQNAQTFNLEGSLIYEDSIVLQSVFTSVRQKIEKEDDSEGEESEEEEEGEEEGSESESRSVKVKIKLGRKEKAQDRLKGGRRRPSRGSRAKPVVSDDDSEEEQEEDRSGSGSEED
Compound,DC50 [1],SMARCA2 % Degradation @ 1 μM ([1]; @ 1 μM),DC50 [2],inhibition at 1 µM ([2]; @ 1 μM),SMARCA2 % Degradation @ 1 μM ([1]; 1 μM),inhibition at 1 µM ([2]; 1 μM)
"NCC#Cc1nccc(N2CC3CN(c4cc(-c5ccccc5O)nnc4N)C3C2)n1 (stereo not drawn) [Compound P-84, 2-(6-amino-5-(3-(2-(3-aminoprop-1-yn-1-yl)pyrimidin-4-yl)-3,6-diazabicyclo[3.2.0]heptan-6-yl)pyridazin-3-yl)phenol]",500 to 5000 nM,+ (+=<30%),> 5000 nM,< 30%,–,–
"Cn1cc(C#Cc2nccc(N3CCCN(c4cc(-c5ccccc5O)nnc4N)CC3)n2)cn1 [Compound P-346, 0-[6-amino-5-(4-{2-[2-(1-methyl-4-pyrazolyl)ethynyl]-4-pyrimidinyl}-1,4-diazepan-1-yl)-3-pyridazinyl]phenol]",500 to 5000 nM,++ (++=30-70%),500 to 5000 nM,< 30%,–,–
"Nc1nnc(-c2ccccc2O)cc1N1CC2CC(C1)N2c1ccnc(C#CCn2cncn2)n1 [Compound P-205, o-[6-amino-5-(6-{2-[3-(1H-1,2,4-triazol-1-yl)-1-propynyl]-4-pyrimidinyl}-3,6-diazabicyclo[3.1.1]hept-3-yl)-3-pyridazinyl]phenol]",> 5000 nM,–,500 to 5000 nM,30 to 70%,–,–
"Nc1nnc(-c2ccccc2O)cc1N1CC2CC(C1)N2c1ccnc(C#CCN2CC(F)(F)C2)n1 [Compound P-204, o-[6-amino-5-(6-{2-[3-(3,3-difluoro-1-azetidinyl)-1-propynyl]-4-pyrimidinyl}-3,6-diazabicyclo[3.1.1]hept-3-yl)-3-pyridazinyl]phenol]",50 to 500 nM,++ (++=30-70%),500 to 5000 nM,30 to 70%,–,–
"Cc1cc(C)n2ncc(C(=O)NCC#Cc3nccc(N4CCN(c5cc(-c6ccccc6O)nnc5N)CC4)n3)c2n1 [Compound P-70, N-(3-(4-(4-(3-amino-6-(2-hydroxyphenyl)pyridazin-4-yl)piperazin-1-yl)pyrimidin-2-yl)prop-2-yn-1-yl)-5,7-dimethylpyrazolo[1,5-a]pyrimidine-3-carboxamide]",50 to 500 nM,++ (++=30-70%),50 to 500 nM,30 to 70%,–,–
"Nc1nnc(-c2ccccc2O)cc1N1CCCN(c2ccnc(C#CC3COC3)n2)CC1 [Compound P-347, 0-[6-amino-5-(4-{2-[2-(3-oxetanyl)ethynyl]-4-pyrimidinyl}-1,4-diazepan-1-yl)-3-pyridazinyl]phenol]",50 to 500 nM,+++ (+++=>70%),50 to 500 nM,> 70%,–,–
"Nc1nnc(-c2ccccc2O)cc1N1CCC2(CCN(c3ccnc(C#CCNC(=O)c4cc5ncccn5n4)n3)CC2)CC1 [Compound P-42, N-(3-(4-(9-(3-amino-6-(2-hydroxyphenyl)pyridazin-4-yl)-3,9-diazaspiro[5.5]undecan-3-yl)pyrimidin-2-yl)prop-2-yn-1-yl)pyrazolo[1,5-a]pyrimidine-2-carboxamide]",50 to 500 nM,++ (++=30-70%),50 to 500 nM,30 to 70%,–,–
"Nc1nnc(-c2ccccc2O)cc1N1CCCN(c2ccnc(C#CCN3CCn4c(nnc4C(F)(F)F)C3)n2)CC1 [Compound P-363, 0-{6-amino-5-[4-(2-{3-[3-(trifluoromethyl)-4,5,6,7-tetrahydro-1,2,3a,6-tetraaza-6-indenyl]-1-propynyl}-4-pyrimidinyl)-1,4-diazepan-1-yl]-3-pyridaziny1} phenol]",500 to 5000 nM,++ (++=30-70%),500 to 5000 nM,30 to 70%,–,–
"C[C@H]1CCN1CC#Cc1nccc(N2CCCN(c3cc(-c4ccccc4O)nnc3N)CC2)n1 [Compound P-279, 0-{5-[4-(2-{3-[(S)-2-methyl-1-azetidinyl]-1-propynyl}-4-pyrimidinyl)-1,4-diazepan-1-y1]-6-amino-3-pyridazinyl}phenol]",50 to 500 nM,+++ (+++=>70%),50 to 500 nM,30 to 70%,–,–
"Nc1nnc(-c2ccccc2O)cc1N1CCN(c2ccnc(C#CCNC(=O)c3cnn4cccnc34)n2)CC1 [Compound P-71, N-(3-(4-(4-(3-amino-6-(2-hydroxyphenyl)pyridazin-4-yl)piperazin-1-yl)pyrimidin-2-yl)prop-2-yn-1-yl)pyrazolo[1,5-a]pyrimidine-3-carboxamide]",50 to 500 nM,++ (++=30-70%),50 to 500 nM,30 to 70%,–,–
"C[C@@H]1CCN(c2cc(-c3ccccc3O)nnc2N)CCN1c1ccnc(C#CCN2CC(F)(F)C2)c1 [Compound P-421, 0-{5-[(R)-4-{2-[3-(3,3-difluoro-1-azetidinyl)-1-propynyl]-4-pyridyl}-5-methyl-1,4-diazepan-1-yl]-6-amino-3-pyridazinyl}phenol]",50 to 500 nM,–,< 50 nM,–,++ (++=30-70%),30 to 70%
"C[C@@H]1CCN(c2cc(-c3ccccc3O)nnc2N)CCN1c1ccnc(C#CCN(C)C)c1C#N [Compound P-406, 4-{(R)-4-[3-amino-6-(0-hydroxyphenyl)-4-pyridazinyl]-7-methyl-1,4-diazepan-1-yl}-2-[3-(dimethylamino)-1-propynyl]nicotinonitrile]",500 to 5000 nM,–,500 to 5000 nM,–,++ (++=30-70%),30 to 70%
"Nc1nnc(-c2ccccc2O)cc1N1CCCN(c2ccnc(C#CCN3CCS(=O)(=O)CC3)n2)CC1 [Compound P-137, 4-(3-(4-(4-(3-amino-6-(2-hydroxyphenyl)pyridazin-4-yl)-1,4-diazepan-1-yl)pyrimidin-2-yl)prop-2-yn-1-yl)thiomorpholine 1,1-dioxide]",500 to 5000 nM,++ (++=30-70%),500 to 5000 nM,30 to 70%,–,–

# Further lines, results first:
DC50 [1],SMARCA2 % Degradation @ 1 μM ([1]; @ 1 μM),DC50 [2],inhibition at 1 µM ([2]; @ 1 μM),SMARCA2 % Degradation @ 1 μM ([1]; 1 μM),inhibition at 1 µM ([2]; 1 μM),Compound
50 to 500 nM,+++ (+++=>70%),50 to 500 nM,> 70%,–,–,"CC1CN(c2ccnc(C#CCNC(=O)c3cc4ncccn4n3)n2)CCCN1c1cc(-c2ccccc2O)nnc1N (stereo not drawn) [Compound P-29, N-(3-(4-(4-(3-amino-6-(2-hydroxyphenyl)pyridazin-4-yl)-3-methyl-1,4-diazepan-1-yl)pyrimidin-2-yl)prop-2-yn-1-yl)pyrazolo[1,5-a]pyrimidine-2-carboxamide]"
50 to 500 nM,++ (++=30-70%),50 to 500 nM,30 to 70%,–,–,"Nc1nnc(-c2ccccc2O)cc1N1CCC2(CCN(c3ccnc(C#CCN4CC5CC4C5)n3)CC2)C1 [Compound P-187, o-{6-amino-5-[8-(2-{3-(2-azabicyclo[2.1.1]hex-2-yl)-1-propynyl}-4-pyrimidinyl)-2,8-diaza-2-spiro[4.5]decyl]-3-pyridazinyl}phenol]"
50 to 500 nM,++ (++=30-70%),50 to 500 nM,30 to 70%,–,–,"Nc1nnc(-c2ccccc2O)cc1N1CCN(c2ccnc(C#CCNC(=O)c3ccncc3)n2)CC1 [Compound P-56, N-(3-(4-(4-(3-amino-6-(2-hydroxyphenyl)pyridazin-4-yl)piperazin-1-yl)pyrimidin-2-yl)prop-2-yn-1-yl)isonicotinamide]"
50 to 500 nM,++ (++=30-70%),500 to 5000 nM,< 30%,–,–,"C[C@@H]1CCN(c2cc(-c3ccccc3O)nnc2N)CCN1c1ccnc(/C=C/C2CC2)n1 [Compound P-171, o-(5-{(R)-4-[2-(2-cyclopropylethenyl)-4-pyrimidinyl]-5-methyl-1,4-diazepan-1-yl}-6-amino-3-pyridazinyl)phenol]"
50 to 500 nM,++ (++=30-70%),50 to 500 nM,30 to 70%,–,–,"Nc1nnc(-c2ccccc2O)cc1N1CCN(c2ccnc(C#CCNC(=O)c3coc4ccccc34)n2)CC1 [Compound P-55, N-(3-(4-(4-(3-amino-6-(2-hydroxyphenyl)pyridazin-4-yl)piperazin-1-yl)pyrimidin-2-yl)prop-2-yn-1-yl)benzofuran-3-carboxamide]"
50 to 500 nM,++ (++=30-70%),< 50 nM,30 to 70%,–,–,"CN(C)CC#Cc1nccc(N2C[C@@H]3CN(c4cc(-c5ccccc5O)nnc4N)C[C@@H]3C2)n1 [Compound P-181, o-{5-[(1R,5S)-7-{2-[3-(dimethylamino)-1-propynyl]-4-pyrimidinyl}-3,7-diazabicyclo[3.3.0]oct-3-yl]-6-amino-3-pyridazinyl} phenol]"
50 to 500 nM,–,50 to 500 nM,–,+++ (+++=>70%),> 70%,"C[C@@H]1CCN(c2cc(-c3ccccc3O)nnc2N)CCN1c1ccnc(C#CCN2CCCC2=O)c1 [Compound P-390, 1-[3-(4-{ (R)-4-[3-amino-6-(o-hydroxyphenyl)-4-pyridaziny1]-7-methyl-1,4-diazepan-1-yl}-2-pyridyl)-2-propynyl]-2-pyrrolidinone]"
50 to 500 nM,+++ (+++=>70%),50 to 500 nM,30 to 70%,–,–,"CNC/C=C/c1nccc(N2CCN(c3cc(-c4ccccc4O)nnc3N)CC[C@H]2C)n1 [Compound P-165, o-{5-[(R)-5-methyl-4-{2-[3-(methylamino)-1-propenyl]-4-pyrimidinyl}-1,4-diazepan-1-y1]-6-amino-3-pyridaziny1}phenol]"
< 50 nM,++ (++=30-70%),< 50 nM,30 to 70%,–,–,"C[C@@H]1CCN(c2cc(-c3ccccc3O)nnc2N)CCN1c1ccnc(C#CCN2CC[C@H](F)C2)n1 [Compound P-244, o-{5-[(R)-4-(2-{3-[(S)-3-fluoro-1-pyrrolidinyl]-1-propynyl}-4-pyrimidinyl)-5-methyl-1,4-diazepan-1-yl]-6-amino-3-pyridaziny1}phenol]"
